Measurements from patent US11008333B2, “Crystalline forms of hydrochloride salts of thienopyrimidine compound” (HANMI PHARM. CO., LTD., priority 2015, dated 2021).
≈ marks a conversion by molar mass, not a printed value. Like-named read-outs stand apart in the source and are kept apart here. One block for each compound: values may come before it.

How the values were obtained:
[1] = Storage under long-term, accelerated and stress testing conditions; assay type: physicochemical; details: for expected stability: expectation from DVS
[2] = Dynamic vapor sorption (DVS), water absorption / hygroscopicity; assay type: physicochemical
Experimental: Dynamic vapor sorption (DVS) analysis was performed in a DVS advantage (Surface measurement system, United Kingdom) analyzer at 25° C. with a relative humidity of 0% to 90%. A sample in an amount of 10 mg was placed into a wire-mesh vapor sorption balance pan and then attached to a DVS advantage dynamic vapor sorption balance via surface measurement systems. Until a stable weight was achieved (99.5% completion of steps), the sample was applied to a ramping profile with a relative humidity of 10% to 90% with a 10% increase of the sample while maintaining the sample in each step. Upon completion of the sorption cycle, the sample was dried using the same process while maintaining a relative humidity of […]. The changes in the sample weight during the adsorption/desorption cycle (repeated 3 times) were recorded and the hygroscopicity of the sample was measured.

[3] = Measurement of water solubility (HPLC); assay type: physicochemical; details: for pH of solution: solution of the water solubility test, 100 mg/mL in water
Experimental: Specifically, each sample of the polymorphs in an amount of 500 mg was added to 5 mL of water, blended at […] to 25° C. using a Voltamixer, and filtered with a GH Polypro membrane Acrodisc, PALL (pore size: 0.2 μm). The filtrate was diluted with a diluent used for HPLC in a 1:100 ratio to obtain the samples.

[4] = test system: cancer cells induced by a mutation in epidermal growth factor receptor (EGFR) tyrosine kinase; details: disclosed in WO 2011/162515; cited from earlier work
[5] = test system: mutant epidermal growth factor receptor tyrosine kinase; details: disclosed in WO 2011/162515; cited from earlier work
[6] = accelerated condition (40° C., relative humidity 75%)
[7] = long-term storage condition (25° C., relative humidity 60%)
[8] = relative humidity of 10% to 90%, 25° C.
[9] = non-ionic water, 500 mg in 5 mL (conc. of solution 100 mg/mL), 2θ° C. to 25° C., amount dissolved based on compound of Formula 1, HPLC
[10] = relative humidity of 40% or higher
[11] = relative humidity of 10% to 70%
[12] = relative humidity of 70% or higher

expected stability [1, 6]: unstable
expected stability [1, 7]: unstable
level of water absorption (hygroscopicity) in DVS [2, 8]: very high level
SMILES: C=CC(=O)Nc1cccc(Oc2nc(Nc3ccc(N4CCN(C)CC4)cc3)nc3ccsc23)c1 [Comparative Example 1, N-(3-(2-(4-(4-methylpiperazin-1-yl)phenylamino)thieno[3,2-d]pyrimidin-4-yloxy)phenyl)acrylamide]

Solubility [3, 9]: 0.1 µg/mL
pH of solution [3]: 7.3
Solubility ([3]; water, 20 °C, water, thermodynamic from solid, amorphous free base, read-out: water solubility): < 0.1 µg/mL
SMILES: C=CC(=O)Nc1cccc(Oc2nc(Nc3ccc(N4CCN(C)CC4)cc3)nc3ccsc23)c1 [Formula 1 (amorphous free base), N-(3-(2-(4-(4-methylpiperazin-1-yl)phenylamino)thieno[3,2-d]pyrimidin-4-yloxy)phenyl)acrylamide]
inhibitory activity against growth of cancer cells induced by EGFR mutation, and drug resistance thereof [4]: selective and effective inhibitory activity
inhibitory activity for mutant EGFR tyrosine kinase [5]: selective inhibitory activity

water solubility compared with the other forms ([3]; comparison of Table 16): highest water solubility
Solubility [3, 9]: 50390 µg/mL (≈ 104 mM)
pH of solution [3]: 1.7
stability [1, 6]: fully stable
stability [1, 7]: fully stable
stability ([1]; stress testing condition (60° C.)): fully stable
reversible water sorption and desorption in DVS ([2]; complete range of 0-90% RH): about 3%
level of water absorption (hygroscopicity) in DVS [2, 8]: 2-3%
level of water absorption (hygroscopicity) in DVS ([2]; relative humidity of 10% to 90%, 25° C., listed as ex. 1): very low level of change
SMILES: C=CC(=O)Nc1cccc(Oc2nc(Nc3ccc(N4CCN(C)CC4)cc3)nc3ccsc23)c1 [Example 1, N-(3-(2-(4-(4-methylpiperazin-1-yl)phenylamino)thieno[3,2-d]pyrimidin-4-yloxy)phenyl)acrylamide]

Solubility [3, 9]: 7760 µg/mL (≈ 15.9 mM)
pH of solution [3]: 2.1
level of water absorption (hygroscopicity) in DVS ([2]; relative humidity of 10% to 40%): very low level
level of water absorption (hygroscopicity) in DVS [2, 10]: about 9%
level of water absorption (hygroscopicity) in DVS ([2]; relative humidity of 40% or higher, listed as ex. 3): about 9%
SMILES: C=CC(=O)Nc1cccc(Oc2nc(Nc3ccc(N4CCN(C)CC4)cc3)nc3ccsc23)c1 [Example 3, N-(3-(2-(4-(4-methylpiperazin-1-yl)phenylamino)thieno[3,2-d]pyrimidin-4-yloxy)phenyl)acrylamide]

level of water absorption (hygroscopicity) in DVS [2, 11]: very low
level of water absorption (hygroscopicity) in DVS ([2]; relative humidity of 10% to 90%, 25° C., listed as ex. 7): about 14%
level of water absorption (hygroscopicity) in DVS [2, 12]: about 14%
SMILES: C=CC(=O)Nc1cccc(Oc2nc(Nc3ccc(N4CCN(C)CC4)cc3)nc3ccsc23)c1 [Example 7, N-(3-(2-(4-(4-methylpiperazin-1-yl)phenylamino)thieno[3,2-d]pyrimidin-4-yloxy)phenyl)acrylamide]

Solubility [3, 9]: 420 µg/mL (≈ 0.863 mM)
pH of solution [3]: 4.7
level of water absorption (hygroscopicity) in DVS [2, 11]: very low
level of water absorption (hygroscopicity) in DVS ([2]; relative humidity of 10% to 70%, listed as ex. 5): very low level
level of water absorption (hygroscopicity) in DVS [2, 12]: about 7%
level of water absorption (hygroscopicity) in DVS ([2]; relative humidity of 70% or higher, listed as ex. 5): about 7%
SMILES: C=CC(=O)Nc1cccc(Oc2nc(Nc3ccc(N4CCN(C)CC4)cc3)nc3ccsc23)c1 [Example 5, N-(3-(2-(4-(4-methylpiperazin-1-yl)phenylamino)thieno[3,2-d]pyrimidin-4-yloxy)phenyl)acrylamide]

Solubility [3, 9]: 10660 µg/mL (≈ 21.9 mM)
pH of solution [3]: 1.7
level of water absorption (hygroscopicity) in DVS ([2]; relative humidity of 10% to 30%): very high
level of water absorption (hygroscopicity) in DVS ([2]; relative humidity of 10% to 30%, listed as ex. 4): about 6%
level of water absorption (hygroscopicity) in DVS [2, 10]: very weak
level of water absorption (hygroscopicity) in DVS ([2]; relative humidity of 40% or higher, listed as ex. 4): very low and constant level
SMILES: C=CC(=O)Nc1cccc(Oc2nc(Nc3ccc(N4CCN(C)CC4)cc3)nc3ccsc23)c1 [Example 4, N-(3-(2-(4-(4-methylpiperazin-1-yl)phenylamino)thieno[3,2-d]pyrimidin-4-yloxy)phenyl)acrylamide]

Solubility [3, 9]: 570 µg/mL (≈ 1.17 mM)
pH of solution [3]: 4.9
level of water absorption (hygroscopicity) in DVS [2, 8]: about 2%
level of water absorption (hygroscopicity) in DVS ([2]; relative humidity of 10% to 90%, 25° C., listed as ex. 6): about 2%
SMILES: C=CC(=O)Nc1cccc(Oc2nc(Nc3ccc(N4CCN(C)CC4)cc3)nc3ccsc23)c1 [Example 6, N-(3-(2-(4-(4-methylpiperazin-1-yl)phenylamino)thieno[3,2-d]pyrimidin-4-yloxy)phenyl)acrylamide]
